Measured values from patent publication US20090318446A1, “4-(1H-Indol-3-yl)-Pyrimidin-2-Ylamine Derivatives and Their Use in Therapy” (Cyclacel Limited, priority 2005, published 2009).

Key:
GSK-3β = GSK-3β (Oryctolagus cuniculus, UniProt G1T8E2); experiment: GSK-3β kinase assay; assay type: biochemical, rabbit; details: Table 2; read-out: Kinase inhibition IC50 GSK3
Experimental: GSK-3 was obtained from New England Biolabs (UK) Ltd., Hitchin, Herts. The recombinant enzyme was isolated from a strain of E. coli that carries a clone expressing GSK-3β derived from a rabbit skeletal muscle cDNA library [Wang, Q. M.; Fiol, C. J.; DePaoli-Roach, A. A.; Roach, P. J. J. Biol. Chem., 1994, 269, 14566]. Inhibition of GSK-3 function was assessed by measurement of phosphorylation of CREB phosphopeptide KRREILSRRPphosphoSYR in the presence of test compounds. Using a 96-well assay format, GSK3 (7.5 U) was incubated for 30 min at 30° C. in a total volume of 25 μL in 20 mM MOPS pH 7.2, 25 mM β-glycerophosphate, 5 mM EGTA, 1 mM DTT, 1 mM […], 40 μM CREB peptide, 15 mM MgCl2 and 100 μM ATP (containing 0.25 μCi [γ-^32P]-ATP) in the presence of varying concentrations of test compound. The samples were transferred to 96-well p81 filter plates (Whatman Polyfiltronics, Kent, UK), and the plates were washed 4 times with 200 μL/well of 75 mM aq orthophosphoric acid. Scintillation liquid (50 μL) was added to each well, and incorporated radioactivity for each sample was determined using a scintillation counter (TopCount, Packard Instruments, Pangbourne, Berks, UK).

CDK1/cyclin B = CDK1/cyclin B (Homo sapiens, UniProt P06493); experiment: Kinase assay CDK1/cyclin B; assay type: biochemical; details: Table 2; read-out: Kinase inhibition IC50 CDK1B
Sequence of CDK1/cyclin B (P06493 whole entry, species assumed): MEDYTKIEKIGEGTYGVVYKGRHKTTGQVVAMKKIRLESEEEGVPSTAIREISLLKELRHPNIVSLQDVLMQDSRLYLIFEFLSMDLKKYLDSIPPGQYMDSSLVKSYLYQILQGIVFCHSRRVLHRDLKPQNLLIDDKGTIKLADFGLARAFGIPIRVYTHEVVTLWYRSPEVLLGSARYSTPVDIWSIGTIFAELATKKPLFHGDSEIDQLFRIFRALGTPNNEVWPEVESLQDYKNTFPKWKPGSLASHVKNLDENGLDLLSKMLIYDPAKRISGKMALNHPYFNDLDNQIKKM
Sequence of CDK1/cyclin B (P14635 whole entry partner, species assumed): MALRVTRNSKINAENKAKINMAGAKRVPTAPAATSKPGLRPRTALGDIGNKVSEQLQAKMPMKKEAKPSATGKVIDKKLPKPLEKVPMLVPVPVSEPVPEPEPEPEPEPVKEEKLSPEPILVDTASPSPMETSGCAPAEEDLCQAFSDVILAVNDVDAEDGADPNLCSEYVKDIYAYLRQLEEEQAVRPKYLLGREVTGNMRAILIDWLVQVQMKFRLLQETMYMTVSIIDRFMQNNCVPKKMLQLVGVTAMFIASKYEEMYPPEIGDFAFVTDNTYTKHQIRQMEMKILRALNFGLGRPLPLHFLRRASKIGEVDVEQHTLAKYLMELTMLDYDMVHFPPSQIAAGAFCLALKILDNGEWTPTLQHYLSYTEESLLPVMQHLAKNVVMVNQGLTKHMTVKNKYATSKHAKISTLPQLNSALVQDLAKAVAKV
Experimental: The compounds from the examples above were investigated for their ability to inhibit the enzymatic activity of various protein kinases. This was achieved by measurement of incorporation of radioactive phosphate from ATP into appropriate polypeptide substrates. Recombinant protein kinases and kinase complexes were produced or obtained commercially. Assays were performed using 96-well plates and appropriate assay buffers (typically 25 mM β-glycerophosphate, 20 mM MOPS, 5 mM EGTA, 1 mM DTT, 1 mM […], pH 7.4), into which were added 2-4 μg of active enzyme with appropriate substrates. The reactions were initiated by addition of Mg/ATP mix (15 mM MgCl2+100 μM ATP with 30-50 kBq per well of [γ-^32P]-ATP) and mixtures incubated as required at 30° C. Reactions were stopped on ice, followed by filtration through p81 filterplates or GF/C filterplates (Whatman Polyfiltronics, Kent, UK). After washing 3 times with 75 mM aq orthophosphoric acid, plates were dried, scintillant added and incorporated radioactivity measured in a scintillation counter (TopCount, Packard Instruments, Pangbourne, Berks, UK). Compounds for kinase assay were made up as 10 mM stocks in DMSO and diluted into 10% DMSO in assay buffer. Data was analysed using curve-fitting software (GraphPad Prism version 3.00 for Windows, GraphPad Software, San Diego Calif. USA) to determine IC50 values (concentration of test compound which inhibits kinase activity by 50%).

Sequence of GSK-3β (G1T8E2 1-432): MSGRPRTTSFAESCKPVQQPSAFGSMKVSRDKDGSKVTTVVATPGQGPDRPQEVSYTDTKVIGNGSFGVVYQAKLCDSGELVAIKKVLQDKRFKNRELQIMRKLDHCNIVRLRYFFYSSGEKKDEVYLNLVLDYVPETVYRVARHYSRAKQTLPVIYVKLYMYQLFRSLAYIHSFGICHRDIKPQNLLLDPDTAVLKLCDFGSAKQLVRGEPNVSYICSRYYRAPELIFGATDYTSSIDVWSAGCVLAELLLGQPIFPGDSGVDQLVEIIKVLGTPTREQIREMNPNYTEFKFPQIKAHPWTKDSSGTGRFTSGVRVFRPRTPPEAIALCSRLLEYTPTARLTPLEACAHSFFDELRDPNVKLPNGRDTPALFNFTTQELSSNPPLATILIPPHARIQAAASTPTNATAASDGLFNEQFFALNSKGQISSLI

| IC50 (GSK-3β) [nM] | IC50 (CDK1/cyclin B) [µM] | SMILES |
| --- | --- | --- |
| 2100 | > 100 | O=[N+]([O-])c1cccc(Nc2nccc(-c3c[nH]c4ccccc34)n2)c1 [Compound 2, [4-(1H-Indol-3-yl)-pyrimidin-2-yl]-(3-nitro-phenyl)-amine] |
| 8700 | > 100 | Fc1ccc(Nc2nccc(-c3c[nH]c4ccccc34)n2)cc1 [Compound 3, (4-Fluoro-phenyl)-[4-(1H-indol-3-yl)-pyrimidin-2-yl]-amine] |
| 1600 | 1.9 | COc1ccc(Nc2nccc(-c3c[nH]c4ccccc34)n2)cn1 [Compound 4, [4-(1H-Indol-3-yl)-pyrimidin-2-yl]-(6-methoxy-pyridin-3-yl)-amine] |
